Source: patent US20250296948A1, “SYNTHESIS OF NUCLEOSIDE DERIVATIVES” (Nucana plc, priority 2022, published 2025)

Columns and labels:
[1] = 12 month dry powder stability, HPLC assay; assay type: physicochemical
Source text: NUC-3373 prepared according to Example 3, above, was packed into a transparent LDPE bag which was then filled with nitrogen and tied with a strip seal. This bag was then placed into another transparent LDPE bag which was also filled with nitrogen. A silica gel packet was placed between the two bags before the outermost bag was tied with a strip seal. These bags were then placed in a triple laminated sun light barrier bag which was sealed with a heat sealer. The bags were kept in a HDPE container. The NUC-3373 was initially assayed by HPLC after manufacture then after 3, 6, 9 and 12 months of storage.

[2] = 6 month dry powder stability, HPLC assay; assay type: physicochemical; conditions: Tables 2 and 3, prepared according to the process of the invention
Source text: NUC-3373 prepared according to Example 3 and Comparative Example 4 was packed into a transparent LDPE bag which was then filled with nitrogen and tied with a strip seal. This bag was then placed into another transparent LDPE bag which was also filled with nitrogen. A silica gel packet was placed between the two bags before the outermost bag was tied with a strip seal. These bags were then placed in a triple laminated sun light barrier bag which was sealed with a heat sealer. The bags were kept in a HDPE container.
NUC-3373 was initially assayed by HPLC after manufacture (0 months) then after 1 and 2 and/or 3 and 6 months of storage at 2-8° C., 25° C. or 40° C.

[3] = Solution stability, alpha naphthol (0.60 RRT) in DMA:Saline (80:20 v/v); assay type: physicochemical; conditions: solutions in DMA:Saline (80:20 v/v); particularly at room temperature
Experimental: Stability data is also provided in Table 4, which compares the levels of alpha naphthol (0.60 RRT) present in solutions of 400 mg/mL NUC-3373, prepared by Example 3 or 4, above, in DMA:Saline (80:20 v/v) at different temperatures measured over set periods of time. The tested solutions are suitable for infusion and injection and the temperatures and times measured are representative of the environments that solutions suitable for infusion and injection would typically be stored in.
In Table 4 the two values provided for each temperature at each time period, separated by “/”, represent different preparations (samples) of that synthesis.

[4] = Solution stability in DMA:Saline (80:20 v/v) by UPLC; assay type: physicochemical; conditions: 2-8° C.; for Assay / Purity / Total Impurities: DMA:Saline (80:20 v/v) solution, UPLC
Experimental: The inventors have found in further work that DMA:Saline (80:20 v/v) solutions of samples obtained according to the process of the invention show no loss of purity or assay, and alpha naphthol impurity up to 12 months at 2-8° C.

a range of cancer models = conditions: compared with 5-fluorouracil; cited from earlier work
tumour cells = conditions: non-clinical studies, compared with 5-FU and capecitabine; cited from earlier work
[5] = dog, compared with 5-FU; cited from earlier work

Structure (SMILES): C[C@H](NP(=O)(OC[C@H]1O[C@@H](n2cc(F)c(=O)[nH]c2=O)CC1O)Oc1cccc2ccccc12)C(=O)OCc1ccccc1 (stereo partly drawn) [NUC-3373, 5-fluoro-2′-deoxyuridine-5′-O-[1-naphthyl (benzoxy-L-alaninyl)] phosphate]
- HPLC assay (% w/w on anhydrous and solvent free basis) ([1]; 5 ± 3° C., 3rd month): 99.9 % w/w
- HPLC assay (% w/w on anhydrous and solvent free basis) ([1]; 5 ± 3° C., 6th month): 100.9 % w/w
- HPLC assay (% w/w on anhydrous and solvent free basis) ([1]; 5 ± 3° C., 9th month): 101.5 % w/w
- HPLC assay (% w/w on anhydrous and solvent free basis) ([1]; 5 ± 3° C., 12th month): 99.4 % w/w
- HPLC assay (% w/w on anhydrous and solvent free basis) ([1]; 5 ± 3° C., Initial): 99.6 % w/w
- HPLC assay (% w/w on anhydrous and solvent free basis) ([1]; 25 ± 2° C., 3rd month): 99.6 % w/w
- HPLC assay (% w/w on anhydrous and solvent free basis) ([1]; 25 ± 2° C., 6th month): 100.7 % w/w
- HPLC assay (% w/w on anhydrous and solvent free basis) ([1]; 25 ± 2° C., 9th month): 101.5 % w/w
- HPLC assay (% w/w on anhydrous and solvent free basis) ([1]; 25 ± 2° C., 12th month): 99.4 % w/w
- HPLC assay (% w/w on anhydrous and solvent free basis) ([1]; 25 ± 2° C., Initial): 99.6 % w/w
- time chemically stable ([1]; at both 2-8° C. and 15-30° C.): at least 12 months
- thermal stability compared with other methods of preparation [2]: thermally more stable than those prepared by other methods
- stability of solutions compared with other methods of preparation [3]: more stable than those prepared by other methods
- Assay ([4]; 3rd month): 99%
- Purity ([4]; 3rd month): 99.9%
- Total Impurities ([4]; 3rd month): 0.07%
- Assay ([4]; 6th month): 101%
- Purity ([4]; 6th month): 99.9%
- Total Impurities ([4]; 6th month): 0.08%
- Assay ([4]; 12th month): 101%
- Purity ([4]; 12th month): 99.9%
- Total Impurities ([4]; 12th month): 0.09%
- Assay ([4]; Initial): 101%
- Purity ([4]; Initial): 99.9%
- Total Impurities ([4]; Initial): 0.07%
- time solutions chemically and physically stable ([4]; DMA:Saline (80:20 v/v) solutions): at least 12 months
- activity in vitro against a range of cancer models (a range of cancer models): outstanding and far superior to the results obtained with 5-fluorouracil
- inhibition of tumour cell growth (tumour cells): much greater inhibition of tumour cell growth
- tolerability [5]: significantly better tolerated than 5-FU
